PubChem BioAssay (NCI)
Where “and” joins values, the source holds several entries; their conditions need not be identical. Equal entries are not always repeated.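 Growth conditions: 96-well plates. Treatment: test compound, 48 hours, 5 concentrations. Analysis: linear interpolation between bracketing concentrations; unreached endpoints set to highest concentration. The concentration for 50% growth inhibition is given as GI50. TGI: concentration producing complete growth inhibition.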

Tests used:
Test in all cases: growth of human tumour cells (NCI), 48 h
IGROV1 ovarian = tested on: IGROV1 ovarian
UACC-62 melanoma = tested on: UACC-62 melanoma
SK-OV-3 ovarian = tested on: SK-OV-3 ovarian
SF-268 CNS = tested on: SF-268 CNS
RPMI-8226 leukemia = tested on: RPMI-8226 leukemia
NCI-H23 lung = tested on: NCI-H23 lung
OVCAR-4 ovarian = tested on: OVCAR-4 ovarian
TK-10 renal = tested on: TK-10 renal
OVCAR-5 ovarian = tested on: OVCAR-5 ovarian
HS 578T breast = tested on: HS 578T breast
786-0 renal = tested on: 786-0 renal
SF-539 CNS = tested on: SF-539 CNS
MCF7 breast = tested on: MCF7 breast
DU-145 prostate = tested on: DU-145 prostate
K-562 leukemia = tested on: K-562 leukemia
M14 melanoma = tested on: M14 melanoma
SNB-19 CNS = tested on: SNB-19 CNS
SN12C renal = tested on: SN12C renal
PC-3 prostate = tested on: PC-3 prostate
RXF 393 renal = tested on: RXF 393 renal
A549 NSCLC = tested on: A549 NSCLC
CCRF-CEM leukemia = tested on: CCRF-CEM leukemia
OVCAR-8 ovarian = tested on: OVCAR-8 ovarian
U251 CNS = tested on: U251 CNS
MOLT-4 leukemia = tested on: MOLT-4 leukemia
KM12 colon = tested on: KM12 colon
MALME-3M melanoma = tested on: MALME-3M melanoma
SK-MEL-28 melanoma = tested on: SK-MEL-28 melanoma
SR leukemia = tested on: SR leukemia
SW-620 colon = tested on: SW-620 colon
SK-MEL-5 melanoma = tested on: SK-MEL-5 melanoma
HCT-116 colon = tested on: HCT-116 colon
NCI/ADR-RES ovarian = tested on: NCI/ADR-RES ovarian
NCI-H226 lung = tested on: NCI-H226 lung
SNB-75 CNS = tested on: SNB-75 CNS
UO-31 renal = tested on: UO-31 renal
NCI-H460 lung = tested on: NCI-H460 lung
EKVX NSCLC = tested on: EKVX NSCLC
MDA-MB-231 breast = tested on: MDA-MB-231 breast
UACC-257 melanoma = tested on: UACC-257 melanoma
LOX IMVI melanoma = tested on: LOX IMVI melanoma
CAKI-1 renal = tested on: CAKI-1 renal
SF-295 CNS = tested on: SF-295 CNS
HCC-2998 colon = tested on: HCC-2998 colon
HOP-92 NSCLC = tested on: HOP-92 NSCLC
HCT-15 colon = tested on: HCT-15 colon
HOP-62 NSCLC = tested on: HOP-62 NSCLC
ACHN renal = tested on: ACHN renal
T-47D breast = tested on: T-47D breast
HT29 colon = tested on: HT29 colon
MDA-MB-435 = tested on: MDA-MB-435
NCI-H522 lung = tested on: NCI-H522 lung
COLO 205 colon = tested on: COLO 205 colon
SK-MEL-2 melanoma = tested on: SK-MEL-2 melanoma
HL-60(TB) leukemia = tested on: HL-60(TB) leukemia
BT-549 breast = tested on: BT-549 breast

SMILES: COc1cc(C)c(-c2ccc(OC)c(=O)cc2C)c(OC)c1OC
- TGI (IGROV1 ovarian): > 100 µM
- TGI (UACC-62 melanoma): > 100 µM
- TGI (SK-OV-3 ovarian): > 100 µM
- TGI (SF-268 CNS): > 100 µM
- TGI (RPMI-8226 leukemia): > 100 µM
- TGI (NCI-H23 lung): > 100 µM
- GI50 (OVCAR-4 ovarian): 44.2 µM and > 100 µM
- TGI (OVCAR-4 ovarian): > 100 µM
- GI50 (TK-10 renal): 66.3 µM and > 100 µM
- TGI (TK-10 renal): > 100 µM
- TGI (OVCAR-5 ovarian): > 100 µM
- GI50 (HS 578T breast): > 100 µM
- TGI (HS 578T breast): > 100 µM
- TGI (786-0 renal): > 100 µM
- TGI (SF-539 CNS): > 100 µM
- TGI (MCF7 breast): > 100 µM
- TGI (DU-145 prostate): > 100 µM
- TGI (K-562 leukemia): > 100 µM
- TGI (M14 melanoma): > 100 µM
- TGI (SNB-19 CNS): > 100 µM
- TGI (SN12C renal): > 100 µM
- TGI (PC-3 prostate): > 100 µM
- TGI (RXF 393 renal): > 100 µM
- TGI (A549 NSCLC): > 100 µM
- TGI (CCRF-CEM leukemia): > 100 µM
- TGI (OVCAR-8 ovarian): > 100 µM
- TGI (U251 CNS): > 100 µM
- TGI (MOLT-4 leukemia): > 100 µM
- TGI (KM12 colon): > 100 µM
- GI50 (MALME-3M melanoma): > 100 µM
- TGI (MALME-3M melanoma): > 100 µM
- GI50 (SK-MEL-28 melanoma): > 100 µM
- TGI (SK-MEL-28 melanoma): > 100 µM
- TGI (SR leukemia): > 100 µM
- TGI (SW-620 colon): > 100 µM
- TGI (SK-MEL-5 melanoma): 38.3 µM and > 100 µM
- TGI (HCT-116 colon): > 100 µM
- GI50 (NCI/ADR-RES ovarian): > 100 µM
- TGI (NCI/ADR-RES ovarian): > 100 µM
- TGI (NCI-H226 lung): > 100 µM
- GI50 (SNB-75 CNS): > 100 µM
- TGI (SNB-75 CNS): > 100 µM
- TGI (UO-31 renal): > 100 µM
- TGI (NCI-H460 lung): > 100 µM
- TGI (EKVX NSCLC): > 100 µM
- TGI (MDA-MB-231 breast): > 100 µM
- TGI (UACC-257 melanoma): > 100 µM
- TGI (LOX IMVI melanoma): > 100 µM
- TGI (CAKI-1 renal): > 100 µM
- TGI (SF-295 CNS): > 100 µM
- TGI (HCC-2998 colon): > 100 µM
- GI50 (HOP-92 NSCLC): 3.53 µM and 22.4 µM
- TGI (HOP-92 NSCLC): > 100 µM
- TGI (HCT-15 colon): > 100 µM
- TGI (HOP-62 NSCLC): > 100 µM
- TGI (ACHN renal): > 100 µM
- TGI (T-47D breast): > 100 µM

SMILES: ClC(Cl)c1nc(-c2ccco2)n2nc(-c3ccccc3)cc2n1
- GI50 (IGROV1 ovarian): > 63.1 µM
- TGI (IGROV1 ovarian): > 100 µM
- GI50 (UACC-62 melanoma): > 100 µM
- TGI (UACC-62 melanoma): > 100 µM
- GI50 (SK-OV-3 ovarian): 6.76 µM
- TGI (SK-OV-3 ovarian): > 100 µM
- GI50 (HT29 colon): 0.338 µM
- TGI (HT29 colon): 2.16 µM
- GI50 (SF-268 CNS): 1.98 µM
- TGI (SF-268 CNS): > 100 µM
- GI50 (RPMI-8226 leukemia): 0.54 µM
- TGI (RPMI-8226 leukemia): > 22.6 µM
- GI50 (MDA-MB-435): 2.64 µM
- TGI (MDA-MB-435): > 100 µM
- GI50 (NCI-H23 lung): 9.81 µM
- TGI (NCI-H23 lung): > 100 µM
- GI50 (OVCAR-4 ovarian): 5.45 µM
- TGI (OVCAR-4 ovarian): > 100 µM
- GI50 (NCI-H522 lung): > 100 µM
- TGI (NCI-H522 lung): > 100 µM
- GI50 (TK-10 renal): 4.96 µM
- TGI (TK-10 renal): > 100 µM
- GI50 (OVCAR-5 ovarian): 2.02 µM
- TGI (OVCAR-5 ovarian): > 100 µM
- GI50 (HS 578T breast): 2.17 µM
- TGI (HS 578T breast): 7.46 µM
- GI50 (786-0 renal): > 23.5 µM
- TGI (786-0 renal): > 100 µM
- GI50 (DU-145 prostate): 0.355 µM
- TGI (DU-145 prostate): 1.41 µM
- GI50 (K-562 leukemia): > 39.1 µM
- TGI (K-562 leukemia): > 100 µM
- GI50 (M14 melanoma): > 100 µM
- TGI (M14 melanoma): > 100 µM
- GI50 (SNB-19 CNS): 0.998 µM
- TGI (SNB-19 CNS): > 100 µM
- GI50 (SN12C renal): > 100 µM
- TGI (SN12C renal): > 100 µM
- GI50 (COLO 205 colon): 1.15 µM
- TGI (COLO 205 colon): 3.58 µM
- GI50 (PC-3 prostate): 1.67 µM
- TGI (PC-3 prostate): 16.2 µM
- GI50 (RXF 393 renal): 0.528 µM
- TGI (RXF 393 renal): 76.4 µM
- GI50 (A549 NSCLC): 1.56 µM
- TGI (A549 NSCLC): 6.16 µM
- GI50 (CCRF-CEM leukemia): > 100 µM
- TGI (CCRF-CEM leukemia): > 100 µM
- GI50 (OVCAR-8 ovarian): 1.62 µM
- TGI (OVCAR-8 ovarian): > 100 µM
- GI50 (U251 CNS): 0.343 µM
- TGI (U251 CNS): 2.33 µM
- GI50 (MOLT-4 leukemia): > 100 µM
- TGI (MOLT-4 leukemia): > 100 µM
- GI50 (KM12 colon): 0.352 µM
- TGI (KM12 colon): 1.71 µM
- GI50 (MALME-3M melanoma): > 100 µM
- TGI (MALME-3M melanoma): > 100 µM
- GI50 (SK-MEL-28 melanoma): 3.76 µM
- TGI (SK-MEL-28 melanoma): > 100 µM
- GI50 (SR leukemia): > 60.2 µM
- TGI (SR leukemia): > 100 µM
- GI50 (SW-620 colon): 0.445 µM
- TGI (SW-620 colon): > 82.5 µM
- GI50 (SK-MEL-5 melanoma): > 100 µM
- TGI (SK-MEL-5 melanoma): > 100 µM
- GI50 (HCT-116 colon): 0.639 µM
- TGI (HCT-116 colon): > 39.3 µM
- GI50 (NCI/ADR-RES ovarian): 0.801 µM
- TGI (NCI/ADR-RES ovarian): > 100 µM
- GI50 (NCI-H226 lung): > 100 µM
- TGI (NCI-H226 lung): > 100 µM
- GI50 (SNB-75 CNS): 0.219 µM
- TGI (SNB-75 CNS): 3.07 µM
- GI50 (UO-31 renal): 1.61 µM
- TGI (UO-31 renal): > 23.9 µM
- GI50 (NCI-H460 lung): 0.265 µM
- TGI (NCI-H460 lung): 0.844 µM
- GI50 (EKVX NSCLC): 1.56 µM
- TGI (EKVX NSCLC): 5.18 µM
- GI50 (MDA-MB-231 breast): 0.791 µM
- TGI (MDA-MB-231 breast): 5.02 µM
- GI50 (LOX IMVI melanoma): > 100 µM
- TGI (LOX IMVI melanoma): > 100 µM
- GI50 (SF-295 CNS): 1.66 µM
- TGI (SF-295 CNS): 6.13 µM
- GI50 (HCC-2998 colon): 0.553 µM
- TGI (HCC-2998 colon): 1.85 µM
- GI50 (SK-MEL-2 melanoma): > 100 µM
- TGI (SK-MEL-2 melanoma): > 100 µM
- GI50 (HOP-92 NSCLC): 0.535 µM
- TGI (HOP-92 NSCLC): 3.64 µM
- GI50 (HCT-15 colon): 0.617 µM
- TGI (HCT-15 colon): > 100 µM
- GI50 (HL-60(TB) leukemia): 0.304 µM
- TGI (HL-60(TB) leukemia): 1.69 µM
- GI50 (BT-549 breast): > 100 µM
- TGI (BT-549 breast): > 100 µM
- GI50 (HOP-62 NSCLC): 0.679 µM
- TGI (HOP-62 NSCLC): 4.5 µM
- GI50 (ACHN renal): 0.365 µM
- TGI (ACHN renal): 2.03 µM
- GI50 (T-47D breast): 1.47 µM
- TGI (T-47D breast): > 100 µM
